According to patent US7612035B2, “Inhibition of mitogen-activated protein kinase (MAPK) pathway: a selective therapeutic strategy against melanoma” (Van Andel Research Institute, priority 2000, dated 2009):
“Also recorded” adds a separate entry of the source. Like-named read-outs stand apart in the source and are kept apart here. Marks after values point to notes of the source that are not given here.

Assays:
[1] = tested on: MAPK (ERK1/2); experiment: Western blot with phospho-specific anti-ERK antibody in M14-MEL cells; type: cell-based, human; conditions: M14-MEL melanoma cells
Description: (§1) Western blot analysis was performed as described previously (Koo et al., 1999, supra). The primary antibodies used were anti-active MAPK from Promega, and anti-ERK1 (K-23) and anti-ERK2 (C-14) from Santa Cruz Biotechnology.

[2] = tested on: normal human melanocytes (NHEM); type: cell-based; conditions: for % Apoptosis: Normal Melanocytes, treatment for 72 hours; for apoptosis (in words): normal melanocytes
[3] = tested on: M14-MEL; type: cell-based, human; conditions: for % Apoptosis: M14-MEL Melanoma Cells, treatment for 72 hours; for Apoptosis (%) Experiment I: M14-MEL, 72 h, average of four replicates minus background (PA alone or DMSO), LF 0.1 μg/ml with PA, PD98059 20 μM every 24 h, U0126 10 μM single dose
[4] = tested on: SK-MEL-5; type: cell-based, human; conditions: 72 h, average of four replicates minus background (PA alone or DMSO), LF 0.1 μg/ml with PA, PD98059 20 μM every 24 h, U0126 10 μM single dose
[5] = tested on: SK-MEL-28; type: cell-based, human; conditions: 72 h, average of four replicates minus background (PA alone or DMSO), LF 0.1 μg/ml with PA, PD98059 20 μM every 24 h, U0126 10 μM single dose
[6] = tested on: normal human melanocytes (NHEM); experiment: Cell cycle profile by flow cytometry; type: cell-based; conditions: 72 hours with PD98059 (and U0126) or 96 hours with LF
Description: (§2) Cell cycle profiles and DNA content were analyzed by flow cytometry, as previously described (Koo, H.-M. et al. Canc Res 59:6057-6062 (1999)). Total cells including floating cells were harvested, washed in cold PBS and fixed in cold 70% ethanol overnight. The fixed cells were rehydrated in PBS containing 1% fetal bovine serum, washed in PBS, incubated with DNase-free RNase at room temperature for 30 min, and then stained with 50 μg/ml propidium iodide overnight at 4° C. in the dark. The stained samples were analyzed in a FACSCalibur (Becton Dickinson Biosciences) for DNA content and cell cycle profiles.

[7] = tested on: MAPK (ERK); experiment: Active phospho-MAPK immunoblot in normal melanocytes; type: cell-based, human; conditions: 72 hours with PD98059 (and U0126) or 96 hours with LF
Description: as §1

[8] = tested on: UACC-62; type: cell-based, human; conditions: 72 h, average of four replicates minus background (PA alone or DMSO), LF 0.1 μg/ml with PA, PD98059 20 μM every 24 h, U0126 10 μM single dose
[9] = tested on: SK-MEL-2; type: cell-based, human; conditions: 72 h, average of four replicates minus background (PA alone or DMSO), LF 0.1 μg/ml with PA, PD98059 20 μM every 24 h, U0126 10 μM single dose
[10] = tested on: MALME-3M; type: cell-based, human; conditions: 72 h, average of four replicates minus background (PA alone or DMSO), LF 0.1 μg/ml with PA, PD98059 20 μM every 24 h, U0126 10 μM single dose
[11] = tested on: LOX-IMVI; type: cell-based, human; conditions: 72 h, average of four replicates minus background (PA alone or DMSO), LF 0.1 μg/ml with PA, PD98059 20 μM every 24 h, U0126 10 μM single dose
[12] = tested on: UACC-257; type: cell-based, human; conditions: 72 h, average of four replicates minus background (PA alone or DMSO), LF 0.1 μg/ml with PA, PD98059 20 μM every 24 h, U0126 10 μM single dose
[13] = tested on: MALME-3M; experiment: Cell cycle profile by flow cytometry; type: cell-based, human; conditions: within 24 hours of treatment
Description: as §2
In most cell types, activation of the MAPK pathway is required for progression through the restriction point in G1 phase of the cell cycle (reviewed in Roussel et al., supra).

[14] = tested on: ERK1 and 2; experiment: Active phospho-MAPK immunoblot in MALME-3M cells; type: cell-based, human
Description: as §1

[15] = tested on: MDA-MB-435 and MDA-N; experiment: NCI-ADS growth inhibition, breast carcinoma lines; type: cell-based, human; conditions: NCI-ADS breast carcinoma lines MDA-MB-435 and MDA-N
[16] = tested on: SK-MEL-2; conditions: mouse, in vivo, ip, 90 mg/kg/day; cited from earlier work
[17] = tested on: M14; conditions: mouse, in vivo, ip, 90 mg/kg/day; cited from earlier work
[18] = tested on: melanoma xenografts; conditions: mouse, in vivo, ip; cited from earlier work
[19] = tested on: SK-MEL-5; conditions: mouse, in vivo, ip, 40 mg/kg/day; cited from earlier work
[20] = tested on: LOX-IMVI; conditions: mouse, in vivo, ip, cited from earlier work
[21] = tested on: UACC-62; conditions: mouse, in vivo, ip, 90 mg/kg/day; cited from earlier work
[22] = tested on: MALME-3M; conditions: mouse, in vivo, ip, 90 mg/kg/day; cited from earlier work
[23] = tested on: UACC-257; conditions: mouse, in vivo, ip, 90 mg/kg/day; cited from earlier work
[24] = 72 hours with PD98059 (and U0126) or 96 hours with LF

## O=C(NOCC1CC1)c1ccc(F)c(F)c1Nc1ccc(I)cc1Cl [PD184352]
[1]
  activation of MAPK (ERK1/2): completely blocked
[2]; 2 μM
  % Apoptosis: 0.3%
[3]; 1 μM
  % Apoptosis: 24.5%
[3]; 5 μM
  % Apoptosis: 37.3%
[3]; 10 μM
  % Apoptosis: 48.8%
[3]; 20 μM
  % Apoptosis: 71.0%
[3]; apoptosis in M14-MEL, 72 hours
  potency relative to PD98059: more potent, possibly by several fold
[3]; apoptosis, 72 hours
  selectivity melanoma cells vs normal human melanocytes: selectively cytotoxic to human melanoma cells

## N#CC(=C(/N)Sc1ccccc1N)/C(C#N)=C(\N)Sc1ccccc1N [U0126]
[4]
  Apoptosis (%) Experiment I: 1.9%
[5]
  Apoptosis (%) Experiment I: 1.1%
[6]
  cell cycle response: induced G1 arrest
[2]; [24]
  apoptosis (in words): no apoptosis was observed; also recorded: did not induce apoptosis
[7]
  MAPK (ERK) activation: inhibited
[8]
  Apoptosis (%) Experiment I: 8.3%
[9]
  Apoptosis (%) Experiment I: 35.4%
[3]
  Apoptosis (%) Experiment I: 36.0%
[10]
  Apoptosis (%) Experiment I: 48.3%
[11]
  Apoptosis (%) Experiment I: 2.3%
[12]
  Apoptosis (%) Experiment I: 4.7%

## COc1cccc(-c2cc(=O)c3ccccc3o2)c1N [PD98059]
[4]
  Apoptosis (%) Experiment I: 9.1%
[5]
  Apoptosis (%) Experiment I: 2.5%
[13]
  cell cycle progression: noticeably blocked in the G1 phase
[14]
  activation of ERK1 and 2: inhibited
[6]
  cell cycle response: induced G1 arrest
[2]; 20 μM
  % Apoptosis: 0%
[2]; [24]
  apoptosis (in words): no apoptosis was observed
[2]; PD98059 for 96 hours
  apoptosis (in words): apoptosis was not detected
[7]
  MAPK (ERK) activation: inhibited
[8]
  Apoptosis (%) Experiment I: 30.5%
[9]
  Apoptosis (%) Experiment I: 23.4%
[3]; 20 μM
  % Apoptosis: 38.9%
[3]
  Apoptosis (%) Experiment I: 53.0%
[10]
  Apoptosis (%) Experiment I: 47.9%
[15]
  sensitivity to growth inhibition: as sensitive as melanoma cell lines
[11]
  Apoptosis (%) Experiment I: 3.6%
[12]
  Apoptosis (%) Experiment I: 19.7%

## COc1cccc2c1[C@H](CO)N1[C@@H](C#N)[C@@H]3C[C@@H](C(=O)O)[C@H]([C@@H]1C2)N3C [DX-52-1]
[16]
  Growth delay: %(T − C)/C: 118%
  Optimal % T/C: 10 (32) %
  Regressions Complete: 2/6
  Regressions Partial: 0/6
  day on which the optimal (minimum) T/C was attained: 10 (32)
[17]
  Growth delay: %(T − C)/C: 56%
  Optimal % T/C: 19 (26) %
  Regressions Complete: 0/6
  Regressions Partial: 0/6
  day on which the optimal (minimum) T/C was attained: 19 (26)
[18]
  melanoma xenografts with statistically significant antitumor activity: 5/7
[19]
  Growth delay: %(T − C)/C: 27%
  Optimal % T/C: 49 (33) %
  Regressions Complete: 0/6
  Regressions Partial: 0/6
  day on which the optimal (minimum) T/C was attained: 49 (33)
[20]; 60 mg/kg/day
  Growth delay: %(T − C)/C: 389%
  Optimal % T/C: −100^b %
  Regressions Complete: 4/6
  Regressions Partial: 016
[20]; 90 mg/kg/day
  Growth delay: %(T − C)/C: 181%
  Optimal % T/C: −54%
  Regressions Complete: 2/10
  Regressions Partial: 3/10
[21]
  Growth delay: %(T − C)/C: 185%
  Optimal % T/C: 18 (34) %
  Regressions Complete: 0/7
  Regressions Partial: 0/7
  day on which the optimal (minimum) T/C was attained: 18 (34)
[22]
  Growth delay: %(T − C)/C: 4%
  Optimal % T/C: 64 (72) %
  Regressions Complete: 0/6
  Regressions Partial: 0/6
  day on which the optimal (minimum) T/C was attained: 64 (72)
[23]
  Growth delay: %(T − C)/C: 35%
  Optimal % T/C: 12 (27) %
  Regressions Complete: 0/6
  Regressions Partial: 0/6
  day on which the optimal (minimum) T/C was attained: 12 (27)
